Assay results: patent US10808008B2, “Aromatic-cationic peptides and uses of same” (Cornell University, priority 2012, dated 2020)
Where no end group is shown, it is not given here. [ ]: non-standard residue; d: D form.

What was measured:
[1] = target: T1, cytochrome c and cardiolipin (CL) (Equus caballus, UniProt P00004); experiment: Fluorescence quenching by cytochrome c in the presence of cardiolipin; assay type: binding, horse; conditions: CL 50 μg/ml
T1 construct: from tissue; host or cells: horse heart
Method: Fluorescence emission of SS-19 (10 μM) was monitored in real time (Ex/Em=320 nm/420 nm) using Hitachi F-4500 fluorescence spectrophotometer. […] CL may potentiate the interaction between SS-19 and cytochrome c by serving as an anionic platform for the two cationic molecules.
The quenching by cytochrome c was not displaced by sequential additions of bovine serum albumin (500 μg/ml) (FIG. 13C, A+arrows).
SS-36 also contains the polarity-sensitive fluorescent amino acid aladan. […] Accordingly, aromatic-cationic peptides of the present disclosure are useful for the prevention or treatment of diseases or disorders characterized by dysregulation of cardiolipin and/or cytochrome c, and/or diseases or disorders characterized by dysregulation of the cardiolipin/cytochrome c interaction.
Interaction of SS peptides with horse heart cytochrome c in the absence or presence of free cardiolipin or cardiolipin/POPC (1:1) liposomes (prepared as described in Example 22) was examined by fluorescence quenching of [atn]SS-02 (λex/λem=320/420 nm) and [ald]SS-02 (λex/λem=360/510 nm) upon addition of cytochrome c (using a Hitachi F-4500 fluorescence spectrophotometer). The solvents used to dissolve cardiolipin and POPC had negligible effect on cytochrome c-dependent quenching of these peptides. All experiments were done in low ionic solution (deionized water) or 20 mM Hepes pH 7.4.

[2] = Fluorescence spectroscopy of labelled peptides with cardiolipin; assay type: binding; conditions: 1 μM peptide; CL 5 to 50 μg/ml
Excerpt: The peptides 2′,6′-Dmt-D-Arg-[…] (SS-19) and 2′,6′-Dmt-D-Arg-Phe-Lys-Ald-NH2 (SS-37) cationic peptides carry net positive charge at neutral pH. They are expected to associate with anionic phospholipid cardiolipin based on electrostatic interaction. The interaction of small peptides with lipid membranes can been studied using fluorescence spectroscopy (Surewicz and Epand, 1984). […] Polarity-sensitive fluorescent probes were incorporated into the peptides and fluorescence spectroscopy was used to determine if SS-19, SS-37 and SS-36 interact with CL.
The peptide 2′,6′-Dmt-D-Arg-Phe-(atn)Dap-NH2 (SS-19) contains anthraniloyl incorporated into diaminopropionic acid. Anthraniloyl derivatives fluoresce in the 410-420 nm range when excited at 320-330 nm (Hiratsuka T, 1983). The quantum yield of anthraniloyl derivatives is strongly dependent on the local environment, and can increase 5-fold going from water to 80% ethanol, together with a blue shift in the emission maxima (λ max) of <10 nm (Hiratsuka T, 1983). Fluorescence emission spectrum of SS-19 (1 μM) alone, and in the presence of increasing concentrations of CL (5 to 50 μg/ml), was monitored following excitation at 320 nm using Hitachi F-4500 fluorescence spectrophotometer.
The peptide 2′,6′-Dmt-D-Arg-Phe-Lys-Ald-NH2 (SS-37) contains an additional amino acid, aladan (Ald), which has been reported to be particularly sensitive to the polarity of its environment and it has been used to probe the electrostatic character of proteins (Cohen et al., 2002). When excited at 350 nm, λmax shifts from 542 nm in water to 409 nm in heptane, accompanied by a significant increase in quantal yield (Cohen et al., 2001). Fluorescence emission spectrum of SS-37 (1 μM) alone, and in the presence of increasing concentrations of CL, was monitored following excitation at 350 nm. Addition of CL (5 to 50 μg/ml) led to a 3-fold increase in quantal yield of SS-37 as well as a clear blue shift in λ max, from 525 nm without CL to 500 nm with 50 μg/ml CL (FIG. 11B).
The peptide 2′,6′-Dmt-D-Arg-Ald-Lys-NH2 (SS-36) contains Ald in place Phe^3 in SS-02. Fluorescence emission spectrum of SS-36 (1 μM) alone, and in the presence of increasing concentrations of CL, was monitored following excitation at 350 nm. SS-36 was the most sensitive to the addition of CL, with dramatic increase in quantal yield and blue shift observed with much lower added amounts of CL (1.25 to 5 μg/ml). The λmax shifted from 525 nm without CL to 500 nm with as little as 1.25 μg/ml CL, and quantal yield increased by more than 100-fold with the addition of 5 μg/ml of CL (FIG. 11C). […] Accordingly, aromatic-cationic peptides of the present disclosure are useful for the prevention or treatment of diseases or disorders characterized by dysregulation of cardiolipin.
Changes in the emission intensity of the [atn]SS-02 and the [ald]SS-02 were measured using a Hitachi F-4500 fluorescence spectrophotometer. The different solvents used to dissolve the various phospholipids (chloroform, methanol and ethanol) had negligible effect on the fluorescence spectrum of [atn]SS-02 and [ald]SS-02. All experiments were done in low ionic solution (deionized water) to optimize electrostatic interactions of peptides with phospholipids.
Increasing concentrations of cardiolipin (5, 10, 25, and 50 μg/mL) were added to 1 μM [atn]SS-02, and the emission intensity between 350 nm and 500 nm was measured.

[3] = target: cardiolipin-cytochrome c complex (Equus caballus, UniProt P00004); experiment: Cytochrome c reduction in the presence of cardiolipin; assay type: biochemical; conditions: 500 μM GSH
Method: Reduction of cytochrome c (20 μM) was induced by the addition of glutathione (500 μM) in the absence or presence of CL (100 μg/ml) (FIG. 15A). Reduction of cytochrome c was monitored by absorbance at 550 nm using a 96-well UV-VIS plate reader (Molecular Devices). Addition of CL decreased the rate of cytochrome c reduction by half.
The time course of cytochrome c reduction by ascorbate was recorded at 550 nm and 570 nm using a 96-well plate reader (Molecular Devices, Sunnyvale, Calif.). For all reactions, cytochrome c was preincubated with cardiolipin in the presence or absence of SS peptides for 1 min. […] Ascorbate (50 μM) was added to initiate the reduction of cytochrome c, and the absorbance was recorded for 5 min. The rate of reduction was calculated based on slope of the change in absorbance intensity of 550 nm over 570 nm.

[4] = target: cytochrome c/cardiolipin complex (Equus caballus, UniProt P00004); experiment: Soret circular dichroism of cytochrome c with cardiolipin; assay type: biochemical; conditions: 10 μM cytochrome c, 30 μg/ml CL, 10 μM peptide; 20 mM HEPES pH 7.5, 25° C.
Method: Circular dichroism (CD) was carried out to examine the effects of the peptides on protecting the heme environment of cytochrome c from the acyl chain of CL. For heme proteins, the Soret CD spectrum is strictly correlated with the heme pocket conformation. In particular, the negative 416-420 nm Cotton effect is considered diagnostic of Fe(III)-Met80 coordination in native cytochrome c (Santucci and Ascoli, 1997). […] CD spectra were obtained using AVIV CD Spectrometer Model 410.
Changes in the Soret CD spectrum of cytochrome c (10 μM) were recorded in the absence (dotted line) and presence (dashed line) of 30 μg/ml CL, plus addition of different peptides (10 μM) (solid line) (FIG. 14). CD measurements were carried out using 20 mM HEPES, pH 7.5, at 25° C. and expressed as molar ellipticity (A) (m Deg). […] Accordingly, aromatic-cationic peptides of the present disclosure are useful for the prevention or treatment of diseases or disorders characterized by dysregulation of cardiolipin and/or cytochrome c, and/or diseases or disorders characterized by dysregulation of the cardiolipin/cytochrome c interaction. In addition, aromatic-cationic peptides of the present disclosure are useful to protect the heme environment of cytochrome c from the acyl chain of cardiolipin.
Circular Dichroism (CD) spectra were collected with an AVIA 62 DS spectrophotometer equipped with a sample temperature controller. CD spectra of the Soret region (370-450 nm) were recorded with 10-mm path length cells containing 20 mM Hepes, pH 7.4, and 10 μM cytochrome c, in the presence or absence of 30 μg/ml cardiolipin and different SS peptide analogs (SS-02, [atn]SS-02, [ald]SS-02, and SS-31). The maximum lipid concentration was kept low to avoid spectral distortions due to excessive light scattering. All measurements were done at 25° C. All spectra were corrected for background, and the final spectrum shown represents the average of at least three experiments.

T1 sequence (P00004 2-105 limits assumed): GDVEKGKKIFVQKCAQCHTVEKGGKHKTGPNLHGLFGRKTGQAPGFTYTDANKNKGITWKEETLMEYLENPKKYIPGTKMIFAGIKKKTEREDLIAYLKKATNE
cytochrome c/cardiolipin complex, sequence (P00004 2-105 limits assumed, one chain of several): as the sequence (P00004 2-105 limits assumed) above
cardiolipin-cytochrome c complex, sequence (P00004 2-105 limits assumed, one chain of several): as the sequence (P00004 2-105 limits assumed) above

Substance | quenching of fluorescence by cytochrome c in the presence of CL ([1]; 10 μM peptide, 2 μM cytochrome c) | displacement of quenching by bovine serum albumin in the presence of CL ([1]; BSA 500 μg/ml) | increase in quantal yield on addition of CL [2] [fold] | CL inhibition of cytochrome c reduction [3] | protection against CL-induced disappearance of negative Cotton effect [4]
2′,6′-Dmt-D-Arg-Phe-Lys-Ald-NH2 [SS-37] | similarly quenched | not displaced | 3 |  | 
D-Arg-Tyr-Lys-Phe-NH2 ([dR]YKF-NH2; N-terminus assumed; SMILES N=C(N)NCCC[C@@H](N)C(=O)N[C@@H](Cc1ccc(O)cc1)C(=O)N[C@@H](CCCCN)C(=O)N[C@@H](Cc1ccccc1)C(N)=O) [SPI-231] |  |  |  | prevented CL inhibition of cytochrome c reduction | Protect the Heme Environment of Cytochrome c from the Acyl Chain of CL
